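1) Cells in 96-well plates. 2) Compound, 48 h, 5 concentrations. 3) Linear interpolation between surrounding doses. 4) Unreached endpoint = highest concentration. Here, GI50 denotes the concentration required for 50% inhibition of growth. Definition used: TGI = concentration required for complete inhibition of growth.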
Experiments:
Test in all cases: NCI tumour cell line growth inhibition, 48 h
SNB-75 CNS = tested on: SNB-75 CNS
DU-145 prostate = tested on: DU-145 prostate
HL-60(TB) leukemia = tested on: HL-60(TB) leukemia
MOLT-4 leukemia = tested on: MOLT-4 leukemia
MDA-MB-435 = tested on: MDA-MB-435
UACC-62 melanoma = tested on: UACC-62 melanoma
MALME-3M melanoma = tested on: MALME-3M melanoma
OVCAR-5 ovarian = tested on: OVCAR-5 ovarian
BT-549 breast = tested on: BT-549 breast
T-47D breast = tested on: T-47D breast

| SMILES | GI50 (SNB-75 CNS) [µM] | TGI (SNB-75 CNS) [µM] | GI50 (DU-145 prostate) [µM] | TGI (DU-145 prostate) [µM] | GI50 (HL-60(TB) leukemia) [µM] | TGI (HL-60(TB) leukemia) [µM] | GI50 (MOLT-4 leukemia) [µM] | TGI (MOLT-4 leukemia) [µM] | GI50 (MDA-MB-435) [µM] | TGI (MDA-MB-435) [µM] | GI50 (UACC-62 melanoma) [µM] | TGI (UACC-62 melanoma) [µM] | GI50 (MALME-3M melanoma) [µM] | TGI (MALME-3M melanoma) [µM] | TGI (OVCAR-5 ovarian) [µM] | GI50 (OVCAR-5 ovarian) [µM] | GI50 (BT-549 breast) [µM] | TGI (BT-549 breast) [µM] | GI50 (T-47D breast) [µM] | TGI (T-47D breast) [µM] |
| --- | --- | --- | --- | --- | --- | --- | --- | --- | --- | --- | --- | --- | --- | --- | --- | --- | --- | --- | --- | --- |
| COc1cc(C(=O)/C=C/c2cc(C(=O)c3cc(OC)c(OC)c(OC)c3)ccc2OC)ccc1N | 1.16 | 4.35 | 1.03 | 4.59 | 1.48 | 6.82 | 0.616 | > 100 | 1.19 | > 100 | 1.17 | 2.66 | 1.47 | 4.16 |  |  |  |  |  |  |
| CC1C[C@H](OC(N)=O)C(C)CC1=O (stereo partly drawn) |  | > 100 |  |  |  | > 100 |  | > 100 |  |  |  | > 100 |  | > 100 | > 100 |  |  |  |  |  |
| CC(C)c1ccccc1NC(=O)C(=O)Cc1nc2ccccc2s1 |  | > 100 |  |  |  | > 100 |  | > 100 |  |  |  | > 100 |  | > 100 |  |  |  |  |  |  |
| Cc1ccc(-c2nc(SCC(=O)O)n[nH]2)cc1 |  | > 100 |  |  |  | > 100 |  | > 100 |  |  |  | > 100 |  | > 100 | > 100 |  |  |  |  |  |
| CC(=O)Nc1ccc(Sc2ccc([N+](=O)[O-])o2)cc1 | 2.78 | 12.8 | 2.26 | 5.98 | 1.29 | 3.79 | 2.14 | 6.42 | 1.7 | 3.44 | 1.83 | 3.84 | 2.09 | 4.77 | 5.9 | 2.34 | 5.22 | 10.6 |  |  |
| CCOC(=O)C(=O)Nc1c(F)cc(F)cc1Br |  | > 100 |  |  |  | > 100 |  | > 100 |  |  |  | > 100 |  | > 100 | > 100 |  |  |  |  |  |
| O=C(OCc1ccccc1)N1CCN(/[N+]([O-])=N/Oc2ccc([N+](=O)[O-])cc2[N+](=O)[O-])CC1 | 15.6 | 32.7 | 5.56 | 18.7 | 18.8 | 57.3 | 4.47 | > 100 | 4.93 | 19.5 | 6.72 | 20.8 |  |  | 67.6 | 6.43 | 8.15 | 23.4 |  |  |
| COc1ccc2oc3c4c2c1CCC4CCC3=O (stereo not drawn) |  | > 100 |  |  |  | > 100 |  | > 100 |  |  |  | > 100 |  | > 100 | > 100 |  |  |  |  |  |
| COc1ccc(C(O)/C(=N\NC(N)=S)c2nc3ccc([N+](=O)[O-])cc3[nH]c2=O)cc1OC (stereo not drawn) |  | > 100 |  |  |  | > 100 |  | > 100 |  |  |  | > 100 |  | > 100 | > 100 |  |  |  |  |  |
| CCOC(=O)C(=O)Nc1ccc(C)cc1C |  |  |  |  |  | > 100 |  | > 100 |  |  |  | > 100 |  | > 100 | > 100 |  |  |  |  |  |
| CCNCC(=O)O[C@]1(CC)C(=O)OCc2c1cc1n(c2=O)Cc2cc3ccccc3nc2-1 |  | 7.91 |  | 1 |  | 0.849 |  | 0.159 |  | 7.82 |  | 0.677 |  | 13.2 | 13.2 |  |  | 26.7 |  |  |
| CC(=O)c1ccc(NC(=O)CSc2nnc(-c3cc(-c4ccc(C)cc4)nc4ccccc34)o2)cc1 | 1.77 | 3.57 | 4.52 | > 100 | > 100 | > 100 | 3.31 | > 100 |  |  | 24.2 | > 100 | 2.67 | 8.34 | > 100 | 6.01 | 2.44 | 7.89 |  |  |
| CCC[CH2][Sn]([CH2]CCC)([O]C(=O)c1cc(F)cc(F)c1)[O]C(=O)c1cc(F)cc(F)c1 | 0.82 | 2.09 |  |  | 0.409 | 2.17 | 0.282 | 1.73 |  |  | 1.11 | 2.31 | 0.508 | 1.75 | 2.96 | 1.6 |  |  |  |  |
| O=S(O)CCCCCSSCCCCSSCCCCCS(=O)O |  | > 100 |  |  |  |  |  | > 100 |  |  |  | > 100 |  | 86.6 | > 100 |  |  |  |  |  |
| COc1ccc(/C=C2\CCCCC2=O)cc1 |  | > 100 |  |  |  | > 100 |  | > 100 |  |  |  | > 100 |  |  |  |  |  |  |  |  |
| CCn1cc(/C=C/C(C)c2cn(CC)c(=O)[nH]c2=O)c(=O)[nH]c1=O (stereo not drawn) |  | > 100 |  |  |  | > 100 |  | > 100 |  |  |  | > 100 |  | > 100 | > 100 |  |  |  |  |  |
| Brc1ccc(-c2nnc(-c3nn(-c4ccccc4)c4nc5ccccc5nc34)o2)cc1 |  | > 100 |  |  |  | > 100 |  | > 100 |  |  |  | > 100 |  |  | > 100 |  |  |  |  |  |
| COc1cc(/C=C/c2cc(/C=C/c3ccc(O)c(OC)c3)n(-c3c(C)cccc3C)c(=O)n2)ccc1O |  |  |  |  | 0.271 | 1.11 |  |  |  |  | 0.635 | 3.28 |  |  | 9.59 | 2.65 |  |  | 1.34 | 4.25 |
